From patent US20240343704A1, “HALO-SUBSTITUTED AMINO PYRIDINE COMPOUNDS AS INHIBITORS OF THE HAEMATOPOIETIC PROGENITOR KINASE 1 (HPK1)” (priority 2021, published 2024)

Key:
[1] = target: T1, Recombinant (1-346) HPK1 (h) (Homo sapiens, UniProt Q92918); assay: HPK1 Human STE Kinase Enzymatic Radiometric Assay; format: biochemical; settings: read-out: HPK1 IC50 nM Range*
T1 construct: Recombinant (1-346) HPK1 (h) is incubated with 8 mM MOPS pH 7.0
T1 sequence (Q92918 1-346): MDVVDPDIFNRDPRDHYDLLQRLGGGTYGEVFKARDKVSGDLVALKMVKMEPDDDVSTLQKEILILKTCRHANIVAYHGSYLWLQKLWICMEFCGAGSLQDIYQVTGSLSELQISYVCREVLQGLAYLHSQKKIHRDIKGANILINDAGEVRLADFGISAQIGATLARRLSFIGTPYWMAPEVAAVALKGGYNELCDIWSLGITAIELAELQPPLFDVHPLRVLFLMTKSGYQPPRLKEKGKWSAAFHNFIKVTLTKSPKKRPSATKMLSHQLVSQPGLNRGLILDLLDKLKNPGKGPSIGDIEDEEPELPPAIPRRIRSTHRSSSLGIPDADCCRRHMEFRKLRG
Protocol: A stock solution of 10 mM of test compound is prepared in DMSO. The compound plate was prepared by 3-fold and 9-point serial dilutions. […] The reaction is initiated by The addition of the Mg/ATP mix. After incubation for 40 minutes at RT, the reaction is stopped by the addition of phosphoric acid to a concentration of 0.5%.

Lck (h) = Lck (h) (Homo sapiens, UniProt P06239); assay: Lck Human  Kinase Enzymatic Radiometric Assay; format: biochemical; settings: read-out: Lck IC50 nM Range*
In short: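 Substrate 33P-incorporation measured by scintillation counting after spotting on P30 filtermat and phosphoric acid washes. Human Lck reacted 40 min at RT in 50 mM Tris pH 7.5 with 10 mM MgAcetate, [gamma-33P]-ATP, 250 uM Cdc2 peptide, 0.1 mM EGTA and 0.1 mM Na3VO4.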

Sequence of Lck (h) (P06239 whole entry): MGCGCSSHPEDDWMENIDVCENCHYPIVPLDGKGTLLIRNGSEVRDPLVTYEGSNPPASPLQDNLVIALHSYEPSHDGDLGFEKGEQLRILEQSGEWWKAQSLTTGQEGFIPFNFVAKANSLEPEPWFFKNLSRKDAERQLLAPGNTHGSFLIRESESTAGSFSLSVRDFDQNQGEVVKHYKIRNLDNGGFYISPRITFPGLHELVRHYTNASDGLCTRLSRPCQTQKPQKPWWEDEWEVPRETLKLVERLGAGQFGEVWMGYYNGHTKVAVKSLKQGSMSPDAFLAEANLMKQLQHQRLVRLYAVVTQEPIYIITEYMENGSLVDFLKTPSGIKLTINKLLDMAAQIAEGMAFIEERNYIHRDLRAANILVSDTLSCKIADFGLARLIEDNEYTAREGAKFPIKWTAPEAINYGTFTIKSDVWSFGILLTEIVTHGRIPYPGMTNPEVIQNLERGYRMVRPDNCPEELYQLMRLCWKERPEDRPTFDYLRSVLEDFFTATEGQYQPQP

| SMILES | IC50 [1] [nM] | IC50 (Lck (h)) [nM] |
| --- | --- | --- |
| Nc1nc(F)c(-c2ccc(O[C@H]3CCCNC3)cc2)cc1-c1ccc2c(c1)CCNC2=O [I-94, (S)-6-(2-amino-6-fluoro-5-(4-(piperidin-3-yloxy)phenyl)pyridin-3-yl)-3,4-dihydroisoquinolin-1(2H)-one] | 0.1 to 10 | > 1000 |
| CC(C)N1CCN(c2ccc(-c3cc(-c4cc5c(cc4F)C(=O)NCC5)c(N)nc3F)cc2)CC1 [I-95, 6-(2-amino-6-fluoro-5-(4-(4-isopropylpiperazin-1-yl)phenyl)pyridin-3-yl)-7-fluoro-3,4-dihydroisoquinolin-1(2H)-one] | 0.1 to 10 | > 1000 |
| C[C@@H]1CN(c2ccc(-c3cc(-c4ccc5c(c4)CCNC5=O)c(N)nc3F)cc2)C[C@H](C)N1C [I-96, 6-(2-amino-6-fluoro-5-(4-((3R,5S)-3,4,5-trimethylpiperazin-1-yl)phenyl)pyridin-3-yl)-3,4-dihydroisoquinolin-1(2H)-one] | 0.1 to 10 | > 1000 |
| C[C@H]1CN(c2ccc(-c3cc(-c4ccc5c(c4)CCNC5=O)c(N)nc3F)cc2)C[C@H](C)N1C [I-97, 6-(2-amino-6-fluoro-5-(4-((3S,5S)-3,4,5-trimethylpiperazin-1-yl)phenyl)pyridin-3-yl)-3,4-dihydroisoquinolin-1(2H)-one] | 0.1 to 10 | > 1000 |
| Nc1nc(F)c(-c2ccc(S(=O)(=O)N3CCOCC3)cc2)cc1-c1ccc2c(c1)CCNC2=O [I-98, 6-(2-amino-6-fluoro-5-(4-(morpholinosulfonyl)phenyl)pyridin-3-yl)-3,4-dihydroisoquinolin-1(2H)-one] | 11 to 100 | > 1000 |
| Nc1nc(F)c(-c2ccc(S(=O)(=O)N3CCCC3)cc2)cc1-c1ccc2c(c1)CCNC2=O [I-99, 6-(2-amino-6-fluoro-5-(4-(pyrrolidin-1-ylsulfonyl)phenyl)pyridin-3-yl)-3,4-dihydroisoquinolin-1(2H)-one] | 11 to 100 | > 1000 |
| CCN1CCCCC1c1ccc(-c2cc(-c3ccc4c(c3)CCNC4=O)c(N)nc2F)cc1 (stereo not drawn) [I-100, 6-(2-amino-5-(4-(1-ethylpiperidin-2-yl)phenyl)-6-fluoropyridin-3-yl)-3,4-dihydroisoquinolin-1(2H)-one] | 0.1 to 10 | > 1000 |
| Nc1nc(F)c(-c2ccc(C3CCCCN3CC(F)F)cc2)cc1-c1ccc2c(c1)CCNC2=O (stereo not drawn) [I-101, 6-(2-amino-5-(4-(1-(2,2-difluoroethyl)piperidin-2-yl)phenyl)-6-fluoropyridin-3-yl)-3,4-dihydroisoquinolin-1(2H)-one] | 11 to 100 | > 1000 |
| CCN1CCOC(c2ccc(-c3cc(-c4ccc5c(c4)CCNC5=O)c(N)nc3F)cc2)C1 (stereo not drawn) [I-102, 6-(2-amino-5-(4-(4-ethylmorpholin-2-yl)phenyl)-6-fluoropyridin-3-yl)-3,4-dihydroisoquinolin-1(2H)-one] | 11 to 100 | > 1000 |
| Nc1nc(F)c(-c2ccc(C3CN(CC(F)F)CCO3)cc2)cc1-c1ccc2c(c1)CCNC2=O (stereo not drawn) [I-103, 6-(2-amino-5-(4-(4-(2,2-difluoroethyl)morpholin-2-yl)phenyl)-6-fluoropyridin-3-yl)-3,4-dihydroisoquinolin-1(2H)-one] | 11 to 100 | > 1000 |
| CC(C)N1CCCCC1c1ccc(-c2cc(-c3ccc4c(c3)CCNC4=O)c(N)nc2F)cc1 (stereo not drawn) [I-104, 6-(2-amino-6-fluoro-5-(4-(1-isopropylpiperidin-2-yl)phenyl)pyridin-3-yl)-3,4-dihydroisoquinolin-1(2H)-one] | 0.1 to 10 | > 1000 |
| CC(C)N1CCOC(c2ccc(-c3cc(-c4ccc5c(c4)CCNC5=O)c(N)nc3F)cc2)C1 (stereo not drawn) [I-105, 6-(2-amino-6-fluoro-5-(4-(4-isopropylmorpholin-2-yl)phenyl)pyridin-3-yl)-3,4-dihydroisoquinolin-1(2H)-one] | 0.1 to 10 | > 1000 |
| CN1C[C@@H]2C[C@]2(c2ccc(-c3cc(-c4ccc5c(c4)CCNC5=O)c(N)nc3F)cc2)C1 [I-106, 6-(2-amino-6-fluoro-5-(4-((1S,5R)-3-methyl-3-azabicyclo[3.1.0]hexan-1-yl)phenyl)pyridin-3-yl)-3,4-dihydroisoquinolin-1(2H)-one] | 0.1 to 10 | > 1000 |
| COCCN1CCC(c2ccc(-c3cc(-c4ccc5c(c4)CCNC5=O)c(N)nc3F)cc2)CC1 [I-107, 6-(2-amino-6-fluoro-5-(4-(1-(2-methoxyethyl)piperidin-4-yl)phenyl)pyridin-3-yl)-3,4-dihydroisoquinolin-1(2H)-one] | 0.1 to 10 | > 1000 |
| C[C@@H]1COCCN1c1ccc(-c2cc(-c3ccc4c(c3)CCNC4=O)c(N)nc2F)c(F)c1 [I-108, (R)-6-(2-amino-6-fluoro-5-(2-fluoro-4-(3-methylmorpholino)phenyl)pyridin-3-yl)-3,4-dihydroisoquinolin-1(2H)-one] | 11 to 100 | > 1000 |
| Nc1nc(F)c(-c2ccc(C3=CCNC3)cc2)cc1-c1ccc2c(c1)CCNC2=O [I-109, 6-(2-amino-5-(4-(2,5-dihydro-1H-pyrrol-3-yl)phenyl)-6-fluoropyridin-3-yl)-3,4-dihydroisoquinolin-1(2H)-one 2,2,2-trifluoroacetate] | 0.1 to 10 | > 1000 |
| CC(C)N1C[C@H]2C[C@@]2(c2ccc(-c3cc(-c4ccc5c(c4)CCNC5=O)c(N)nc3F)cc2)C1 [I-110, 6-(2-amino-6-fluoro-5-(4-((1R,5S)-3-isopropyl-3-azabicyclo[3.1.0]hexan-1-yl)phenyl)pyridin-3-yl)-3,4-dihydroisoquinolin-1(2H)-one] | 0.1 to 10 | > 1000 |
| CC(C)N1C[C@@H]2C[C@]2(c2ccc(-c3cc(-c4ccc5c(c4)CCNC5=O)c(N)nc3F)cc2)C1 [I-111, 6-(2-amino-6-fluoro-5-(4-((1S,5R)-3-isopropyl-3-azabicyclo[3.1.0]hexan-1-yl)phenyl)pyridin-3-yl)-3,4-dihydroisoquinolin-1(2H)-one 2,2,2-trifluoroacetate] | 0.1 to 10 | > 1000 |
| Nc1nc(F)c(-c2ccc(N3CC[C@@H](F)C3)cc2)cc1-c1ccc2c(c1)CCNC2=O [I-112, (R)-6-(2-amino-6-fluoro-5-(4-(3-fluoropyrrolidin-1-yl)phenyl)pyridin-3-yl)-3,4-dihydroisoquinolin-1(2H)-one] | 11 to 100 | > 1000 |
| Nc1nc(F)c(-c2ccc(N3CC[C@H](F)C3)cc2)cc1-c1ccc2c(c1)CCNC2=O [I-113, (S)-6-(2-amino-6-fluoro-5-(4-(3-fluoropyrrolidin-1-yl)phenyl)pyridin-3-yl)-3,4-dihydroisoquinolin-1(2H)-one] | 11 to 100 | > 1000 |
| CO[C@@H]1CCN(c2ccc(-c3cc(-c4ccc5c(c4)CCNC5=O)c(N)nc3F)cc2)C1 [I-114, (R)-6-(2-amino-6-fluoro-5-(4-(3-methoxypyrrolidin-1-yl)phenyl)pyridin-3-yl)-3,4-dihydroisoquinolin-1(2H)-one] | 11 to 100 | > 1000 |
| CO[C@H]1CCN(c2ccc(-c3cc(-c4ccc5c(c4)CCNC5=O)c(N)nc3F)cc2)C1 [I-115, (S)-6-(2-amino-6-fluoro-5-(4-(3-methoxypyrrolidin-1-yl)phenyl)pyridin-3-yl)-3,4-dihydroisoquinolin-1(2H)-one] | 0.1 to 10 | > 1000 |
| CS(=O)(=O)[C@@H]1CCN(c2ccc(-c3cc(-c4ccc5c(c4)CCNC5=O)c(N)nc3F)cc2)C1 [I-116, (R)-6-(2-amino-6-fluoro-5-(4-(3-(methylsulfonyl)pyrrolidin-1-yl)phenyl)pyridin-3-yl)-3,4-dihydroisoquinolin-1(2H)-one] | 0.1 to 10 | > 1000 |
| CS(=O)(=O)[C@H]1CCN(c2ccc(-c3cc(-c4ccc5c(c4)CCNC5=O)c(N)nc3F)cc2)C1 [I-117, (S)-6-(2-amino-6-fluoro-5-(4-(3-(methylsulfonyl)pyrrolidin-1-yl)phenyl)pyridin-3-yl)-3,4-dihydroisoquinolin-1(2H)-one] | 0.1 to 10 | > 1000 |
| CN1C=NN(c2ccc(-c3cc(-c4ccc5c(c4)CCNC5=O)c(N)nc3F)cc2)CC1 [I-118, 6-(2-amino-6-fluoro-5-(4-(4-methyl-5,6-dihydro-1,2,4-triazin-1(4H)-yl)phenyl)pyridin-3-yl)-3,4-dihydroisoquinolin-1(2H)-one] | 0.1 to 10 | > 1000 |
| Nc1nc(F)c(-c2ccc(C3CCN(CCO)CC3)cc2)cc1-c1ccc2c(c1)CCNC2=O [I-119, 6-(2-amino-6-fluoro-5-(4-(1-(2-hydroxyethyl)piperidin-4-yl)phenyl)pyridin-3-yl)-3,4-dihydroisoquinolin-1(2H)-one] | 0.1 to 10 | > 1000 |
| CCN1CC=C(c2ccc(-c3cc(-c4ccc5c(c4)CCNC5=O)c(N)nc3F)cc2)C1 [I-120, 6-(2-amino-5-(4-(1-ethyl-2,5-dihydro-1H-pyrrol-3-yl)phenyl)-6-fluoropyridin-3-yl)-3,4-dihydroisoquinolin-1(2H)-one] | 0.1 to 10 | > 1000 |
